Patent publication US20110178041A1, “HETEROCYCLIC BIARYL DERIVATIVE AND PDE INHIBITOR COMPRISING SAME AS ACTIVE INGREDIENT” (priority 2008, published 2011)
pIC50: −log10 of the molar value.

Experiments:
[1] = biological target: T1, PDE4B catalytic zone (PDE4Bcat) (Homo sapiens, UniProt Q07343); test: Phosphodiesterase 4 inhibitory activity ([3H]-cAMP, recombinant PDE4Bcat); format: biochemical; conditions: 30° C. 20 minutes, read-out: IC50 (μmol/L) PDE4
T1 construct: made in house; host or cells: Sf9 insect cells (baculovirus, Bac-to-Bac / Gateway)

[2] = biological target: T2, PDE3A catalytic zone (PDE3Acat) (Homo sapiens, UniProt Q14432); test: Phosphodiesterase 3-inhibitory activity ([3H]-cAMP, recombinant PDE3Acat); format: biochemical; conditions: 30° C. 20 minutes, read-out: IC50 value, PDE3
T2 construct: made in house; host or cells: Sf9 insect cells (baculovirus, Bac-to-Bac / Gateway)

[3] = system: LPS-induced pulmonary inflammation (total leukocytes in BALF); test: LPS-induced pulmonary inflammation in rats; format: in vivo; conditions: Leukocyte; rat, 3 mg/kg oral one hour before LPS inhalation, BALF 3 hours after LPS; read-out: rate of inhibition of total number of leukocytes in BALF
Description: One hour before the inhalation of lipopolysaccharide from E. coli serotype 055:B5 (LPS), each candidate compound was orally administered to each test rat in a dose of 3 mg/kg, and then the test animal was allowed to inhale an LPS solution (50 mL) over 30 minutes, while the solution was atomized using a nebulizer. After 3 hours from the LPS-inhalation, the rats were euthanized by the administration of a 20% urethane solution (5 ml/rat, i.p.). The bronchial cannula was inserted through the trachea. Broncoalveolar lavage was performed by injecting 5 ml physiological saline, three consecutive times using a 5 mL volume syringe. The operations were repeated twice and these physiological saline samples were recovered as broncoalveolar lavage fluid (BALF). Each of the BALF thus recovered was centrifuged at 1200 rpm and 4° C. for 10 minutes (Hirtachi; himac […]), the resulting residue was again suspended in 10 mL of 0.1% bovine serum albumin-containing physiological saline, an equivalent volume of Turk's diluting fluid was added to the suspension to thus stain the leukocytes present therein and the total number of leukocytes was determined under the microscopic observation to thus calculate the rate of inhibition.

T2 sequence (Q14432 674-1093 limits assumed): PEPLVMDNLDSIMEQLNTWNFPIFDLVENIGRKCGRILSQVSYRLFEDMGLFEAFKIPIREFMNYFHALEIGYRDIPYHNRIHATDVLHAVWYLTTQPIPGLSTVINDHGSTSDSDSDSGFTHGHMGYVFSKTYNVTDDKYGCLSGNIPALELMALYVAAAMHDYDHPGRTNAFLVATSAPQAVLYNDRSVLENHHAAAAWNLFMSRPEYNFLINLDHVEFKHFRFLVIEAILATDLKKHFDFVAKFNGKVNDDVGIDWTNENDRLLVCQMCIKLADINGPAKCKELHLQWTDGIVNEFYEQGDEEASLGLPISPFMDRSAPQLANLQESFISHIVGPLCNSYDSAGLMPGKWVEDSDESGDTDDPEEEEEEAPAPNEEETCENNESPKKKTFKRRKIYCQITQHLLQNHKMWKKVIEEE
T1 sequence (Q07343 330-659 limits assumed): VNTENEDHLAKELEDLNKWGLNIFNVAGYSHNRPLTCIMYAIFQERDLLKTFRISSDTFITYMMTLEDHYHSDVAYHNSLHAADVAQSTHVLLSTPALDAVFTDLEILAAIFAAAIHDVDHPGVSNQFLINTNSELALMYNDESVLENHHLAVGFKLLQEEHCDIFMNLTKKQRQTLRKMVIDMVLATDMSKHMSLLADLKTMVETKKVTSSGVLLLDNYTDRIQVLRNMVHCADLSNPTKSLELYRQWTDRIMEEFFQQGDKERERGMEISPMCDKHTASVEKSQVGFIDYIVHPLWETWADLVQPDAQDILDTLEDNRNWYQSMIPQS

pIC50 [1]	pIC50 [2]	SMILES	inhibition in vivo at 3 mg/kg [3] [%]
7.00 to 8.00	< 6.00	COc1ccc(-c2ccc3c(c2)CCNC3=O)c2cc(C(F)(F)F)nn12 [Example 58, 6-(7-Methoxy-2-trifluoromethylpyrazolo[1,5-a]pyridin-4-yl)-3,4-dihydroisoquinolin-1(2H)-one]	≥ 60
7.00 to 8.00	< 6.00	COc1ccc(-c2ccc3c(c2)CNC3=O)c2cc(C(F)(F)F)nn12 [Example 59, 5-(7-Methoxy-2-trifluoromethylpyrazolo[1,5-a]pyridin-4-yl)isoindolin-1-one]	≥ 60
> 8.00	< 6.00	COc1ccc(-c2ccc3c(=O)[nH]cc(Cl)c3c2)c2cc(C(F)(F)F)nn12 [Example 60, 4-Chloro-6-(7-methoxy-2-trifluoromethylpyrazolo[1,5-a]pyridin-4-yl)isoquinolin-1(2H)-one]	≥ 60
> 8.00		COc1ccc(-c2ccc3c(c2)CCNC3=O)c2c(Cl)c(C(F)(F)F)nn12 [Example 62, 6-(3-Chloro-7-methoxy-2-trifluoromethylpyrazolo[1,5-a]pyridin-4-yl)-3,4-dihydroisoquinolin-1(2H)-one]	≥ 60
> 8.00	< 6.00	CNc1ccc(-c2ccc3c(c2)CCNC3=O)c2cc(C(F)(F)F)nn12 [Example 63, 6-(7-Methylamino-2-trifluoromethylpyrazolo[1,5-a]pyridin-4-yl)-3,4-dihydroisoquinolin-1(2H)-one]	≥ 60
> 8.00	< 6.00	CNc1ccc(-c2ccc3[nH]c(=O)ccc3c2)c2cc(C(F)(F)F)nn12 [Example 64, 6-(7-Methylamino-2-trifluoromethylpyrazolo[1,5-a]pyridin-4-yl)quinolin-2(1H)-one]	≥ 60
> 8.00	< 6.00	COc1ccc(-c2ccc3[nH]c(=O)ccc3c2)n2c(Cl)c(C(F)(F)F)nc12 [Example 89, 6-(3-Chloro-8-methoxy-2-(trifluoromethyl)imidazo[1,2-a]pyridin-5-yl)quinolin-2(1H)-one]	≥ 60
7.00 to 8.00	< 6.00	COc1ccc(-c2ccc3c(c2)CCC(=O)N3C)c2cc(C(F)(F)F)nn12 [Example 102, 6-(7-Methoxy-2-trifluoromethylpyrazolo[1,5-a]pyridin-4-yl)-1-methyl-3,4-dihydroquinolin-2(1H)-one]	≥ 60
> 8.00	< 6.00	COc1ccc(-c2ccc3c(ccc(=O)n3C)c2)c2c(Cl)c(C(F)(F)F)nn12 [Example 115, 6-(3-Chloro-7-methoxy-2-trifluoromethylpyrazolo[1,5-a]pyridin-4-yl)-1-methylquinolin-2(1H)-one]	≥ 60
7.00 to 8.00	< 6.00	COc1ccc(-c2ccc3c(c2)CCNC3=O)c2cc(C3CC3)nn12 [Example 121, 6-(2-Cyclopropyl-7-methoxypyrazolo[1,5-a]pyridin-4-yl)-3,4-dihydroisoquinolin-1(2H)-one]	≥ 60
> 8.00	< 6.00	CNc1ccc(-c2ccc3[nH]c(=O)ccc3c2)n2c(Cl)c(C(F)(F)F)nc12 [Example 142, 6-(3-Chloro-8-methylamino-2-trifluoromethylimidazo[1,2-a]pyridin-5-yl)quinolin-2(1H)-one]	≥ 60
> 8.00	< 6.00	CNc1ccc(-c2ccc3c(c2)CCNC3=O)n2c(Cl)c(C(F)(F)F)nc12 [Example 143, 6-(3-Chloro-8-methylamino-2-trifluoromethylimidazo[1,2-a]pyridin-5-yl)-3,4-dihydroisoquinolin-1(2H)-one]	≥ 60
> 8.00		CNc1ccc(-c2ccc3c(=O)[nH]cc(Cl)c3c2)n2c(Cl)c(C(F)(F)F)nc12 [Example 145, 4-Chloro-6-(3-chloro-8-(methylamino)-2-trifluoromethylimidazo[1,2-a]pyridin-5-yl)isoquinolin-1(2H)-one]	
7.00 to 8.00		Nc1ccc(-c2ccc3c(=O)[nH]cc(Cl)c3c2)n2cc(C(F)(F)F)nc12 [Example 146, 6-(8-Amino-2-trifluoromethylimidazo[1,2-a]pyridin-5-yl)-4-chloro-isoquinolin-1(2H)-one]	
